This is an account of results in US9168248B2, “Spiro compounds useful as inhibitors of stearoyl-coenzyme A delta-9 desaturase” (Merck Canada Inc., priority 2009, dated 2015).

This experiment concerns the target human SCD1 (Homo sapiens (Human), UniProt O00767). Put plainly: SCD enzyme activity assay (conversion of radiolabeled stearoyl-CoA to oleoyl-CoA), human SCD1. The class given is biochemical. The note with it: human SCD1 from baculovirus/Sf9 expression system, reconstituted with cytochrome B5 and cytochrome B5 reductase; read-out: IC50 hSCD-1. The protocol: I. SCD Enzyme Activity Assay:
The potency of compounds of formula I against the stearoyl-CoA desaturase was determined by measuring the conversion of radiolabeled stearoyl-CoA to oleoyl-CoA using rat liver microsome or human SCD1 following previously published procedures with some modifications (Joshi, et al., J. Lipid Res., 18: 32-36 (1977); Talamo, et al., Anal. Biochem, 29: 300-304 (1969)). Liver microsome was prepared from male Wistar or Sprague Dawley rats on a high carbohydrate diet for 3 days (LabDiet #5803, Purina). The livers were homogenized (1:10 w/v) in a buffer containing 250 mM sucrose, 1 mM EDTA, 5 mM DTT and 50 mM Tris-HCl (pH 7.5). After a 100,000×g centrifugation for 60 min, the liver microsome pellet was suspended in a buffer containing 100 mM sodium phosphate, 20% glycerol, 2 mM DTT, and stored at −78° C. Human SCD1 desaturase system was reconstituted using human SCD1 from a baculovirus/Sf9 expression system, cytochrome B5 and cytochrome B5 reductase. Typically, test compound in 2 μL DMSO was incubated for […] at room temperature with 180 μL of the SCD enzyme in a buffer containing 100 mM Tris-HCl (pH 7.5), ATP (5 mM), Coenzyme-A (0.1 mM), Triton X-100 (0.5 mM) and NADH (2 mM). The reaction was initiated by the addition of 20 μL of [^3H]-stearoyl-CoA (final concentration=2 μM, radioactivity concentration=1 μCi/mL). After 10 mM, the reaction mixture (80 μL) was mixed with a calcium chloride/charcoal aqueous suspension (100 μL charcoal (10% w/v) plus 25 μL CaCl2 (2N). After centrifugation to precipitate the radioactive fatty acid species, tritiated water released from 9,10-[^3H]-stearoyl-CoA by the SCD enzyme was quantified on a scintillation counter.

Chain of human SCD1 (O00767 whole entry): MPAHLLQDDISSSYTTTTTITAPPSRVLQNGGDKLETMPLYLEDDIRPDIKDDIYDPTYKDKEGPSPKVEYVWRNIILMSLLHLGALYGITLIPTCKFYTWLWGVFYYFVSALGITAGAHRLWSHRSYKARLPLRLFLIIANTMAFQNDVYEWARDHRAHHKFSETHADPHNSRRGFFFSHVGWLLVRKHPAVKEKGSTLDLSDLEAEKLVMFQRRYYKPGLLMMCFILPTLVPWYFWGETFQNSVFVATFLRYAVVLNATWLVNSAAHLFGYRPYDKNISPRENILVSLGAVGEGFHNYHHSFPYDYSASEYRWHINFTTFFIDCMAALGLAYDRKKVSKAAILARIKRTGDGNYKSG

In the case of `O=C(O)Cn1nnc(-c2nnc(N3CCC4(CCc5c(Cl)cccc5O4)CC3)s2)n1` [Example 1, {5-[5-(5-Chloro-3,4-dihydro-1′H-spiro[chromene-2,4′-piperidin]-1′-yl)-1,3,4-thiadiazol-2-yl]-2H-tetrazol-2-yl}acetic acid], the concentration for half-maximal inhibition (IC50) came out at 12 nM.

With `O=C(O)Cn1nnc(-c2cc(N3CCC4(CCc5c(Cl)cccc5O4)CC3)no2)n1` [Example 2, {5-[3-(5-Chloro-3,4-dihydro-1′H-spiro[chromene-2,4′-piperidin]-1′-yl)isoxazol-5-yl]-2H-tetrazol-2-yl}acetic acid], the IC50 worked out at 11 nM. With `O=C(O)Cn1nnc(-c2cnc(N3CCC4(CCc5c(Cl)cccc5O4)CC3)s2)n1` [Example 3, {5-[2-(5-Chloro-3,4-dihydro-1′H-spiro[chromene-2,4′-piperidin]-1′-yl)-1,3-thiazol-5-yl]-2H-tetrazol-2-yl}acetic acid] the figure was 13 nM; with `O=C(O)Cn1nnc(-c2cnc(N3CCC4(CC3)CC(=O)c3ccccc3O4)s2)n1` [Example 4, {5-[2-(4-Oxo-3,4-dihydro-1′H-spiro[chromene-2,4′-piperidin]-1′-yl)-1,3-thiazol-5-yl]-2H-tetrazol-2-yl}acetic acid], 41 nM; with `O=C(O)Cn1nnc(-c2cnc(N3CCC4(CCc5ccccc54)CC3)s2)n1` [Example 5, {5-[2-(2,3-Dihydro-1′H-spiro[indene-1,4′-piperidin]-1′-yl)-1,3-thiazol-5-yl]-2H-tetrazol-2-yl}acetic acid], 49 nM.

For the compound `O=C(O)Cn1nnc(-c2cnc(N3CCC4(CC3)COc3ccccc34)s2)n1` [Example 6, {5-[2-(1′H-Spiro[1-benzofuran-3,4′-piperidin]-1′-yl)-1,3-thiazol-5-yl]-2H-tetrazol-2-yl}acetic acid], the IC50 was found to be 65 nM. With `O=C(O)Cn1nnc(-c2cnc(N3CCC4(C=Cc5ccccc54)CC3)s2)n1` [Example 7, {5-[2-(1′H-Spiro[indene-1,4′-piperidin]-1′-yl)-1,3-thiazol-5-yl]-2H-tetrazol-2-yl}acetic acid] the figure was 244 nM. With `O=C(O)Cn1nnc(-c2nnc(N3CCC4(CC3)CC(=O)c3ccccc3O4)s2)n1` [Example 8, {5-[5-(4-Oxo-3,4-dihydro-1′H-spiro[chromene-2,4′-piperidin]-1′-yl)-1,3,4-thiadiazol-2-yl]-2H-tetrazol-2-yl}acetic acid] the figure was 708 nM; with `O=C(O)Cn1nnc(-c2cnc(N3CCC4(CC3)NC(=O)c3ccccc3O4)s2)n1` [Example 9, {5-[2-(4-Oxo-3,4-dihydro-1′H-spiro[1,3-benzoxazine-2,4′-piperidin]-1′-yl)-1,3-thiazol-5-yl]-2H-tetrazol-2-yl}acetic acid], 181 nM; with `O=C(O)Cn1nnc(-c2nnc(N3CCC4(CC3)Cc3ccccc3C(=O)O4)s2)n1` [Example 10, {5-[5-(1-Oxo-1,4-dihydro-1′H-spiro[isochromene-3,4′-piperidin]-1′-yl)-1,3,4-thiadiazol-2-yl]-2H-tetrazol-2-yl}acetic acid], 338 nM.

Turning to `COc1cccc2c1CCC1(CCN(c3nnc(-c4nnn(CC(=O)O)n4)s3)CC1)O2` [Example 11, {5-[5-(5-Methoxy-3,4-dihydro-1′H-spiro[chromene-2,4′-piperidin]-1′-yl)-1,3,4-thiadiazol-2-yl]-2H-tetrazol-2-yl}acetic acid], the IC50 was determined as 13 nM.

Take `O=C(O)Cn1nnc(-c2nnc(N3CCC4(CCc5c(O)cccc5O4)CC3)s2)n1` [Example 12, {5-[5-(5-Hydroxy-3,4-dihydro-1′H-spiro[chromene-2,4′-piperidin]-1′-yl)-1,3,4-thiadiazol-2-yl]-2H-tetrazol-2-yl}acetic acid]: the IC50 came out at 366 nM. In the case of `O=C(O)Cn1nnc(-c2cc(N3CCC4(CCc5c(OC(F)(F)F)cccc5O4)CC3)no2)n1` [Example 16, (5-{3-[5-(Trifluoromethoxy)-3,4-dihydro-1H-spiro[chromene-2,4′-piperidin]-1′-yl]isoxazol-5-yl}-2H-tetrazol-2-yl)acetic acid], the IC50 came to 1 nM. The result for `O=C(O)Cn1nnc(-c2nnc(N3CCC4(CCc5c(OC(F)(F)F)cccc5O4)CC3)s2)n1` [Example 17, (5-{5-[5-(Trifluoromethoxy)-3,4-dihydro-1′H-spiro[chromene-2,4′-piperidin]-1′-yl]-1,3,4-thiadiazol-2-yl}-2H-tetrazol-2-yl)acetic acid] reads 1 nM; that for `O=C(O)Cn1nnc(-c2cnc(N3CCC4(CCc5c(OC(F)(F)F)cccc5O4)CC3)s2)n1` [Example 18, (5-{2-[5-(Trifluoromethoxy)-3,4-dihydro-1′H-spiro[chromene-2,4′-piperidin]-1′-yl]-1,3-thiazol-5-yl}-2H-tetrazol-2-yl)acetic acid], 1 nM; that for `O=C(O)Cn1nnc(-c2cc(N3CCC4(CCc5c(Br)cccc5O4)CC3)no2)n1` [Example 22, {5-[3-(5-Bromo-3,4-dihydro-1′H-spiro[chromene-2,4′-piperidin]-1′-yl)isoxazol-5-yl]-2H-tetrazol-2-yl}acetic acid], 1 nM.

Consider `O=C(O)Cn1nnc(-c2cnc(N3CCC4(CCc5c(Br)cccc5O4)CC3)s2)n1` [Example 28, {5-[2-(5-Bromo-3,4-dihydro-1′H-spiro[chromene-2,4′-piperidin]-1′-yl)-1,3-thiazol-5-yl]-2H-tetrazol-2-yl}acetic acid], for which the IC50 was 1 nM. Regarding `Cc1cccc2c1CCC1(CCN(c3ncc(-c4nnn(CC(=O)O)n4)s3)CC1)O2` [Example 42, {5-[2-(5-Methyl-3,4-dihydro-1′H-spiro[chromene-2,4′-piperidin]-1′-yl)-1,3-thiazol-5-yl]-2H-tetrazol-2-yl}acetic acid], the IC50 was 1 nM.

Consider `O=C(O)Cn1nnc(-c2cnc(N3CCC4(CC3)Cc3cccc(Cl)c3C(=O)O4)s2)n1` [Example 46, {5-[2-(8-Chloro-1-oxo-1,4-dihydro-1′H-spiro[isochromene-3,4′-piperidin]-1′-yl)-1,3-thiazol-5-yl]-2H-tetrazol-2-yl}acetic acid], for which the half-maximal inhibitory concentration (IC50) amounted to 21 nM. The result for `O=C(O)Cn1nnc(-c2cnc(N3CCC4(CC3)NC(=O)c3c(Cl)cccc3O4)s2)n1` [Example 54] reads 62 nM; that for `O=C(O)Cn1ccn(-c2cnc(N3CCC4(CCc5c(Cl)cccc5O4)CC3)s2)c1=O` [Example 68, {3-[2-(5-Chloro-3,4-dihydro-1′H-spiro[chromene-2,4′-piperidin]-1′-yl)-1,3-thiazol-5-yl]-2-oxo-2,3-dihydro-1H-imidazol-1-yl}acetic acid], 3 nM; that for `O=C(O)Cn1nnc(-c2nnc(N3CCC4(CCc5c(cccc5C(F)(F)F)O4)CC3)s2)n1` [Example 75, (5-{5-[5-(Trifluoromethyl)-3,4-dihydro-1′H-spiro[chromene-2,4′-piperidin]-1′-yl]-1,3,4-thiadiazol-2-yl}-2H-tetrazol-2-yl)acetic acid], 1 nM. In the case of `O=C(O)Cn1nnc(-c2cnc(N3CCC4(CCc5c(cccc5C(F)(F)F)O4)CC3)s2)n1` [Example 76, (5-{2-[5-(Trifluoromethyl)-3,4-dihydro-1′H-spiro[chromene-2,4′-piperidin]-1′-yl]-1,3-thiazol-5-yl}-2H-tetrazol-2-yl)acetic acid], the IC50 amounted to 1 nM.

Regarding “{4-[5-(5-Chloro-3,4-dihydro-1′H-spiro[chromene-2,4′-piperidin]-1′-yl)-1,3,4-thiadiazol-2-yl]-1H-1,2,3-triazol-1-yl}acetic acid [Example 72]”, the IC50 amounted to 3 nM.
